What was measured:
Fusarium culmorum [1] = test: whole plant or invertebrate; assay type: in vivo; conditions: in Triticum aestivum, read-out: control of Fusarium culmorum
[2] = system: Botryotinia fuckeliana (Botrytis cinerea); test: Botryotinia fuckeliana (Botrytis cinerea) / liquid culture (gray mould); assay type: cell-based; conditions: 72 h, read-out: control of Botryotinia fuckeliana
Gaeumannomyces graminis = Gaeumannomyces graminis / liquid culture (take-all of cereals); assay type: cell-based; conditions: read-out: control of Gaeumannomyces graminis
[3] = system: Glomerella lagenarium (Colletotrichum lagenarium); test: Glomerella lagenarium (Colletotrichum lagenarium) / liquid culture (anthracnose); assay type: cell-based; conditions: Colletotrichum orbiculare; read-out: control of Glomerella lagenarium
[4] = system: Magnaporthe grisea (Pyricularia oryzae); test: microbe, parasite or virus in culture; assay type: cell-based; conditions: 72 h, read-out: control of Magnaporthe grisea
[5] = system: Monographella nivalis (Microdochium nivale); test: Monographella nivalis (Microdochium nivale) / liquid culture (foot rot cereals); assay type: cell-based; conditions: 96 h, read-out: control of Monographella nivalis
Fusarium culmorum [6] = test: microbe, parasite or virus in culture; assay type: cell-based; conditions: read-out: control of Fusarium culmorum

SMILES | pest or weed control at 200 ppm (Fusarium culmorum [1]) [%] | inhibition of growth at 200 ppm [2] [%] | inhibition of growth at 200 ppm (Gaeumannomyces graminis) [%] | inhibition of growth at 200 ppm [3] [%] | melting point [°C] | inhibition of growth at 200 ppm [4] [%] | inhibition of growth at 200 ppm [5] [%] | inhibition of growth at 200 ppm (Fusarium culmorum [6]) [%]
CC(C)CC(C)(Cc1ccccc1Cl)NC(=O)c1cnc2c(F)cccc2c1 (centres unmarked) [Compound E-22, N-[1-[(2-chlorophenyl)methyl]-1,3-dimethyl-butyl]-8-fluoro-quinoline-3-carboxamide] | ≥ 80 | ≥ 80 | ≥ 80 | ≥ 80 | 109 to 110 | ≥ 80 | ≥ 80 | ≥ 80
CC(C)CC(C)(Cc1cccc(Cl)c1)NC(=O)c1cnc2c(F)cccc2c1 (centres unmarked) [Compound E-27, N-[1-[(3-chlorophenyl)methyl]-1,3-dimethyl-butyl]-8-fluoro-quinoline-3-carboxamide] |  | ≥ 80 | ≥ 80 | ≥ 80 | 41 to 42 | ≥ 80 | ≥ 80 | ≥ 80
O=C(NC(CCC(F)(F)F)Cc1ccccc1)c1cnc2c(Cl)cccc2c1 (centres unmarked) [Compound E-17, N-(1-benzyl-4,4,4-trifluoro-butyl)-8-chloro-quinoline-3-carboxamide] | ≥ 80 | ≥ 80 | ≥ 80 |  | 163 to 167 | ≥ 80 |  | ≥ 80
CC(C)CC(C)(Cc1ccccc1F)NC(=O)c1cnc2c(F)cccc2c1 (centres unmarked) [Compound E-21, 8-fluoro-N-[1-[(2-fluorophenyl)methyl]-1,3-dimethyl-butyl]quinoline-3-carboxamide] | ≥ 80 | ≥ 80 | ≥ 80 | ≥ 80 | 105 to 106 | ≥ 80 | ≥ 80 | ≥ 80
CC(C)CC(C)(Cc1cccc(C#N)c1)NC(=O)c1cnc2c(F)cccc2c1 (centres unmarked) [Compound E-46, N-[1-[(3-cyanophenyl)methyl]-1,3-dimethyl-butyl]-8-fluoro-quinoline-3-carboxamide] |  | ≥ 80 | ≥ 80 | ≥ 80 | 45 to 46 | ≥ 80 |  | ≥ 80
C=C(C)CC(Cc1ccccc1)(NC(=O)c1cnc2c(F)cccc2c1)C1CC1 (centres unmarked) [Compound E-53, N-(1-benzyl-1-cyclopropyl-3-methyl-but-3-enyl)-8-fluoro-quinoline-3-carboxamide] |  | ≥ 80 | ≥ 80 | ≥ 80 |  | ≥ 80 | ≥ 80 | ≥ 80
Cc1cccc2cc(C(=O)NC(CCC(F)(F)F)Cc3ccccc3)cnc12 (centres unmarked) [Compound E-19, N-(1-benzyl-4,4,4-trifluoro-butyl)-8-methyl-quinoline-3-carboxamide] | ≥ 80 | ≥ 80 | ≥ 80 |  | 158 to 161 | ≥ 80 |  | ≥ 80
C=CCC(C)(Cc1ccccc1)NC(=O)c1cnc2c(F)cccc2c1 (centres unmarked) [Compound E-38, N-(1-benzyl-1-methyl-but-3-enyl)-8-fluoro-quinoline-3-carboxamide] | ≥ 80 | ≥ 80 | ≥ 80 | ≥ 80 |  | ≥ 80 | ≥ 80 | ≥ 80
C=CCC(C)(Cc1ccccc1)NC(=O)c1cnc2ccccc2c1 (centres unmarked) [Compound E-37, N-(1-benzyl-1-methyl-but-3-enyl)quinoline-3-carboxamide] |  | ≥ 80 | ≥ 80 | ≥ 80 |  | ≥ 80 | ≥ 80 | ≥ 80
CC(C)(NC(=O)c1cnc2ccccc2c1)C(C)(C)c1ccccc1F [Compound E-1, N-[2-(2-fluorophenyl)-1,1,2-trimethyl-propyl]quinoline-3-carboxamide] | ≥ 80 | ≥ 80 | ≥ 80 | ≥ 80 |  |  | ≥ 80 | ≥ 80
CC(C)CC(C)(Cc1ccccc1)NC(=O)c1cnc2ccccc2c1 (centres unmarked) [Compound E-13, N-(1-benzyl-1,3-dimethyl-butyl)quinoline-3-carboxamide] | ≥ 80 | ≥ 80 | ≥ 80 | ≥ 80 |  |  | ≥ 80 | ≥ 80
CC(C)CC(C)(Cc1ccccc1)NC(=O)c1cnc2c(F)c(F)ccc2c1 (centres unmarked) [Compound E-48, N-(1-benzyl-1,3-dimethyl-butyl)-7,8-difluoro-quinoline-3-carboxamide] | ≥ 80 | ≥ 80 | ≥ 80 | ≥ 80 | 114 to 116 | ≥ 80 | ≥ 80 | ≥ 80
CC(C)CC(C)(Cc1ccccc1)NC(=O)c1cnc2cc(F)ccc2c1 (centres unmarked) [Compound E-40, N-(1-benzyl-1,3-dimethyl-butyl)-7-fluoro-quinoline-3-carboxamide] |  | ≥ 80 | ≥ 80 | ≥ 80 | 142 to 144 | ≥ 80 |  | ≥ 80
CCCC(C)(Cc1ccccc1)NC(=O)c1cnc2ccccc2c1 (centres unmarked) [Compound E-43, N-(1-benzyl-1-methyl-butyl)quinoline-3-carboxamide] | ≥ 80 | ≥ 80 | ≥ 80 | ≥ 80 |  | ≥ 80 | ≥ 80 | ≥ 80
CC(C)CC(C)(Cc1cccc(Br)c1)NC(=O)c1cnc2c(F)cccc2c1 (centres unmarked) [Compound E-45, N-[1-[(3-bromophenyl)methyl]-1,3-dimethyl-butyl]-8-fluoro-quinoline-3-carboxamide] |  | ≥ 80 | ≥ 80 | ≥ 80 | 87 to 89 | ≥ 80 | ≥ 80 | ≥ 80
CCCC(C)(Cc1ccccc1)NC(=O)c1cnc2c(F)cccc2c1 (centres unmarked) [Compound E-42, N-(1-benzyl-1-methyl-butyl)-8-fluoro-quinoline-3-carboxamide] | ≥ 80 | ≥ 80 | ≥ 80 | ≥ 80 |  | ≥ 80 | ≥ 80 | ≥ 80
